Data published in ChEMBL document CHEMBL4665757, “Design and synthesis of dual active neovibsanin derivatives based on a chemical structure merging method” (Bioorg Med Chem Lett, 2020).
Calls of active or inactive are those of the source. No cut-off for these calls is given here.

How the values were obtained:
PC-12 [1] = assay: Induction of neurite outgrowth in rat PC12 cells at 30 uM incubated for 4 days in presence of NGF by phase contrast microscopic analysis; assay type: functional, cell-based; details: time 4.0 day
PC-12 [2] = assay: Induction of neurite outgrowth in rat PC12 cells at 30 uM incubated for 4 days by phase contrast microscopic analysis; assay type: functional, cell-based; details: time 4.0 day
PC-12 [3] = assay: Induction of neurite outgrowth in rat PC12 cells at 0.3 to 30 uM incubated for 4 days in presence of NGF by phase contrast microscopic analysis; assay type: functional, cell-based; details: dose microM 0.3-30, time 4.0 day
[4] = Solubility in water; assay type: physicochemical; details: buffer

Q: Which Activity (PC-12 [1]) does the source give for COC1(C)C[C@@H]2OCC3=CCCC[C@]32O1 (stereo not given in full) here?
A: Active

Q: Which Activity (PC-12 [2]) does the source give for COc1ccc(/C=C/[C@@H]2CCC=C[C@H]2c2ccc(OC)c(OC)c2)cc1OC here?
A: Active

Q: With COc1ccc(/C=C/[C@@H]2C[C@@]34OC(C)(O)C[C@@H]3OCC4=C[C@H]2c2ccc(OC)c(OC)c2)cc1OC (mixture of isomers) as the compound, how does the Activity (PC-12 [3]) read?
A: Active

Q: What about the solubility [4] of the same compound?
A: Insoluble

Q: And the Activity (PC-12 [2])?
A: Active
